{
  "source": "patent US9034826B2",
  "about": "“Use of epidermal growth factor for the morphofunctional restoration of peripheral nerves in diabetic neuropathy” (Centro de Ingenieria Genetica y Biotecnologia, priority 2006, dated 2015)",
  "type_in_all_cases": "in vivo, Wistar rats",
  "key": {"right sciatic nerve [1]": {"tested_on": "right sciatic nerve", "assay": "Laser Doppler Perfusion Imaging of blood perfusion of a peripheral nerve, prevention study (Example 1)", "conditions": "diabetic rats, 75 μg EGF/ml, two months", "procedure": "Male Wistar, with 200-250 grams of body weight, received a subcutaneous injection of streptozotocin, at 75 mg/kg in sodium citrate buffer. Water was then replaced by a 10% sucrose solution during the next 24 h, to prevent deaths caused by hypoglycemia. Glucose levels in blood were monitored every morning during the next 72 hours after the injection. Only animals with sustained glucose values above 15 mmol/L were used. Rats were housing at 4 per cage and fed in the conventional way. A concurrent group of other 80 rats received citrate buffer without streptozotocin and was handled in a similar fashion to the diabetic group. The average value for glycemia during the 72 hours in this group was 5.87 mmol/L.\nAll treatments were conducted during 8 weeks, starting one week after streptozotocin injection. The composition used contained 75 μg of human recombinant EGF/ml. Several types of observations were conducted in the animals under study:\nThe right sciatic nerve of rats was used as a model. Ten animals were included for each one of the experimental groups. A similar number of non diabetic rats were used to calculate the reference values. A Laser Doppler Perfusion Imaging (LDPI) system was used. Data of perfusion in peripheral tissues to the nerve were programmed as zero values. Control animals received saline during two months before the measurement. […]"}, "right sciatic nerve [2]": {"tested_on": "right sciatic nerve", "assay": "Laser Doppler Perfusion Imaging of blood perfusion of a peripheral nerve, reversion study (Example 2)", "conditions": "established diabetic neuropathy, 100 μg EGF in 1 ml i.p. 3 days a week for one month", "description": "The right sciatic nerve of rats was used as a model. Ten animals were included for each one of the experimental groups. A similar number of non diabetic rats were used to calculate the reference values. A Laser Doppler Perfusion Imaging (LDPI) system was used. Data of perfusion in peripheral tissues to the nerve were programmed as zero values. Control animals received saline during two months before the measurement. All determinations were done under the same conditions of anesthesia and environmental conditions. They are reflected in Table 5. The aim of this study was to evaluate the neurorestoration effect of the pharmaceutical composition. Male Wistar rats between 200-250 grams of body is weight received a subcutaneous injection of streptozotocin at 75 mg/kg in sodium citrate buffer, and were allowed to evolve until 120 days after disease induction. All rats used in this experiment had shown sustained glucose levels above 15 mmol/L. Animals were handled and fed as previously described. A concurrent control group was set, where animals received saline instead of streptozotocin. […] After this period an electrophysiological characterization of all rats were done and animals were split in two random treatment groups: Group II. Animals received the pharmaceutical composition with 100 μg of EGF in 1 ml, 3 days a week, by intraperitoneal route. […]"}, "sciatic nerve": {"tested_on": "sciatic nerve", "assay": "Histomorphometric study on fragments of the sciatic nerve, reversion study (Example 2)", "conditions": "established diabetic neuropathy, 100 μg EGF in 1 ml i.p. 3 days a week, evaluation after 30 days", "procedure": "(§1) The aim of this study was to evaluate the neurorestoration effect of the pharmaceutical composition. Male Wistar rats between 200-250 grams of body is weight received a subcutaneous injection of streptozotocin at 75 mg/kg in sodium citrate buffer, and were allowed to evolve until 120 days after disease induction. All rats used in this experiment had shown sustained glucose levels above 15 mmol/L. Animals were handled and fed as previously described. A concurrent control group was set, where animals received saline instead of streptozotocin. […] After this period an electrophysiological characterization of all rats were done and animals were split in two random treatment groups:\n(§2) Group II. Animals received the pharmaceutical composition with 100 μg of EGF in 1 ml, 3 days a week, by intraperitoneal route.\nOne month after conclusion of the treatment with either EGF containing composition or saline, and […] after disease induction, animals were sacrificed by an overdose of anesthesia and perfused with saline buffer pH 7.4. A total of ten animals per experimental group were included for histomorphometric studies, and an equivalent number of rats were used for biochemical determinations. In both systems the sciatic nerves from both limbs were dissected. The procedures were similar to those described for the neuropathic damage prevention assay. Samples taken for histological and o histomorphometric studies were stained with hematoxilin/eosin and toluidine blue. At least five fragments of the same nerve were quantitatively studied using MADIP program. The fragments were included in OCT blocks, post-fixed with glutaraldehyde, and sliced horizontal and transversally. The histological indicators assessed have been described above as well as the procedures used for the processing and evaluation: • Total number of blood vessels (in epineural/perineural) in 10 microscopic fields using 10× as constant magnification in longitudinal cuts of the nerve. • Percentage of demyelinated fibers. Evaluated by averaging the values per microscopic field (×20, at least five fields). • Percentage of myelin or non-myelin fibers with lesions (dilated or distorted) per microscopic field (×20, at least five fields). • Percentage of endoneurial collagenization (moderated: 25 to 50%; severe: more than 50% of the endoneurial area in transversal slices, and at least three different sections."}, "Lipoprotein Lipase (LPL)": {"tested_on": "Lipoprotein Lipase (LPL)", "assay": "Lipoprotein lipase (LPL) enzymatic activity in sciatic nerve fragments, reversion study (Example 2)", "conditions": "established diabetic neuropathy, 100 μg EGF in 1 ml i.p. 3 days a week for one month", "procedure": "Fragments of the nerve from each animal were incubated together with 3 μg/ml heparin in Krebs-Ringer buffer at 37° C. for 50 minutes. Aliquots from these samples were then incubated in the presence of [^14C] triolein-phosphatidylcholine. ^14C labeled fatty acids were quantified by the classic methods. LPL activity was expressed in nanomoles of released fatty acids (RFA) per minute and gram of tissue.\nas §1, §2\nThe aim of this study was to compare the LPL enzymatic activity after one month of treatment with EGF containing composition, as compared to saline treated diabetic animals. […]"}},
  "data": [
    {"substance": "EGF containing pharmaceutical composition: Composition with human recombinant EGF: 75 μg/ml in Example 1, 100 μg in 1 ml in Example 2, given intraperitoneally", "values": [
      {"measurement": "Laser Doppler perfusion of the sciatic nerve", "setting": "right sciatic nerve [1]; 1 ml i.p. once weekly (Treatment group 1)", "result": "653.4 ± 41.9", "unit": "LDPI Units"},
      {"measurement": "Laser Doppler perfusion of the sciatic nerve", "setting": "right sciatic nerve [1]; 1 ml i.p. three times a week (Treatment group 3)", "result": "988.7 ± 80.3", "unit": "LDPI Units"},
      {"measurement": "Laser Doppler perfusion of the sciatic nerve", "setting": "right sciatic nerve [2]", "result": "934 ± 60.18", "unit": "LDPI Units"},
      {"measurement": "% of collagenized area", "setting": "sciatic nerve", "result": "46.3 ± 9.5", "unit": "%"},
      {"measurement": "% of demyelinated fibers", "setting": "sciatic nerve", "result": "50.6 ± 12.3", "unit": "%"},
      {"measurement": "% of fibers with lesions", "setting": "sciatic nerve", "result": "52.6 ± 8.3", "unit": "%"},
      {"measurement": "No. of blood vessels", "setting": "sciatic nerve; 10 microscopic fields", "result": "86.5 ± 14.6"},
      {"measurement": "LPL activity in the sciatic nerve", "setting": "Lipoprotein Lipase (LPL)", "result": "6.29 ± 1.67", "unit": "nmoles AGL/min/g"}
    ]}
  ]
}
